Measured values: the supplement of paper PMC10307832

What was measured:
Experiment in all cases: relative viability (nuclei count vs DMSO), 5 days (fraction); higher = more cells survive
[1] = compound: CC1=C(C=C(C=C1)NC(=O)C2=CC(=CC=C2)C(C)(C)C#N)NC3=CC4=C(C=C3)N=CN(C4=O)C [AZ628] + NC(=O)Nc1cc(-c2cccc(F)c2)sc1C(=O)N[C@H]1CCCNC1 [AZD7762] (partner 0.2 µM)
Procedure, shortened: (§1)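 The day after seeding in 1536-well plates, lung cancer cell lines were treated by pin tool with a single drug, or with a fixed anchor-drug dose together with five library-drug doses (not always all listed) in √10 steps. After 5 days, a combined fix-and-stain solution (final 0.05% Triton X-100, 1% formaldehyde, 1 ug/ml Hoechst) was added. Nuclei counted on 4× images gave relative viability as treated counts over vehicle counts, reported as the median of duplicate plates.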

[2] = compound: C1CC2=C(C1)C=C(C=C2)OC3=NC(=C4C(=N3)N(C=N4)CC5=CC=C(C=C5)C6=CC=CC=C6)N[C@@H](CC7=CC=CC=C7)CO [QS11] + CC(=O)Nc1cccc(-n2c(=O)n(C3CC3)c(=O)c3c(Nc4ccc(I)cc4F)n(C)c(=O)c(C)c32)c1 [Trametinib] (partner 0.02 µM)
Procedure, shortened: as §1

[3] = compound: CC1=C(C=C(C=C1)NC(=O)C2=CC(=CC=C2)C(C)(C)C#N)NC3=CC4=C(C=C3)N=CN(C4=O)C [AZ628] + CCNC(=O)c1noc(-c2cc(C(C)C)c(O)cc2O)c1-c1ccc(CN2CCOCC2)cc1 [Luminespib] (partner 0.01 µM)
Procedure, shortened: as §1

[4] = compound: C1CC2=C(C1)C=C(C=C2)OC3=NC(=C4C(=N3)N(C=N4)CC5=CC=C(C=C5)C6=CC=CC=C6)N[C@@H](CC7=CC=CC=C7)CO [QS11] + Nc1nc2[nH]cc(CCc3ccc(C(=O)N[C@@H](CCC(=O)O)C(=O)O)cc3)c2c(=O)[nH]1 [Pemetrexed] (partner 0.2 µM)
Procedure, shortened: as §1

HOP-62
relative viability ([1]; first compound 0.08 µM): 0.831
relative viability ([1]; first compound 0.253 µM): 0.555
relative viability ([1]; first compound 0.8 µM): 0.613
relative viability ([1]; first compound 2.53 µM): 0.479
relative viability ([1]; first compound 8 µM): 0.297
relative viability ([2]; first compound 0.08 µM): 0.373
relative viability ([2]; first compound 0.253 µM): 0.393
relative viability ([2]; first compound 0.8 µM): 0.38
relative viability ([2]; first compound 2.53 µM): 0.357
relative viability ([2]; first compound 8 µM): 0.42
relative viability ([3]; first compound 0.08 µM): 0.977
relative viability ([3]; first compound 0.253 µM): 0.865
relative viability ([3]; first compound 0.8 µM): 0.759
relative viability ([3]; first compound 2.53 µM): 0.826
relative viability ([3]; first compound 8 µM): 0.475
relative viability ([4]; first compound 0.08 µM): 0.414
relative viability ([4]; first compound 0.253 µM): 0.371
relative viability ([4]; first compound 0.8 µM): 0.276
relative viability ([4]; first compound 2.53 µM): 0.23
relative viability ([4]; first compound 8 µM): 0.283

LC-2-ad
relative viability ([1]; first compound 0.08 µM): 0.909
relative viability ([1]; first compound 0.253 µM): 0.85
relative viability ([1]; first compound 0.8 µM): 1.02
relative viability ([1]; first compound 2.53 µM): 0.922
relative viability ([1]; first compound 8 µM): 0.759
relative viability ([2]; first compound 0.08 µM): 0.906
relative viability ([2]; first compound 0.253 µM): 0.985
relative viability ([2]; first compound 0.8 µM): 0.606
relative viability ([2]; first compound 2.53 µM): 0.843
relative viability ([2]; first compound 8 µM): 0.962
relative viability ([3]; first compound 0.08 µM): 1.1
relative viability ([3]; first compound 0.253 µM): 1.08
relative viability ([3]; first compound 0.8 µM): 0.458
relative viability ([3]; first compound 2.53 µM): 1.13
relative viability ([3]; first compound 8 µM): 0.926
relative viability ([4]; first compound 0.08 µM): 0.273
relative viability ([4]; first compound 0.253 µM): 0.27
relative viability ([4]; first compound 0.8 µM): 0.27
relative viability ([4]; first compound 2.53 µM): 0.294
relative viability ([4]; first compound 8 µM): 0.26

LCLC-103H
relative viability ([1]; first compound 0.08 µM): 0.759
relative viability ([1]; first compound 0.253 µM): 0.771
relative viability ([1]; first compound 0.8 µM): 0.824
relative viability ([1]; first compound 2.53 µM): 0.79
relative viability ([1]; first compound 8 µM): 0.783
relative viability ([2]; first compound 0.08 µM): 0.705
relative viability ([2]; first compound 0.253 µM): 0.681
relative viability ([2]; first compound 2.53 µM): 0.68
relative viability ([2]; first compound 8 µM): 0.595
relative viability ([3]; first compound 0.08 µM): 0.971
relative viability ([3]; first compound 0.253 µM): 0.879
relative viability ([3]; first compound 0.8 µM): 0.974
relative viability ([3]; first compound 2.53 µM): 0.94
relative viability ([3]; first compound 8 µM): 0.965
relative viability ([4]; first compound 0.08 µM): 0.454
relative viability ([4]; first compound 0.253 µM): 0.475
relative viability ([4]; first compound 2.53 µM): 0.463
relative viability ([4]; first compound 8 µM): 0.446

LK-2
relative viability ([1]; first compound 0.08 µM): 0.526
relative viability ([1]; first compound 0.253 µM): 0.354
relative viability ([1]; first compound 0.8 µM): 0.273
relative viability ([1]; first compound 2.53 µM): 0.357
relative viability ([1]; first compound 8 µM): 0.259
relative viability ([2]; first compound 0.08 µM): 0.702
relative viability ([2]; first compound 0.253 µM): 1.03
relative viability ([2]; first compound 0.8 µM): 0.778
relative viability ([2]; first compound 2.53 µM): 0.81
relative viability ([2]; first compound 8 µM): 0.841
relative viability ([3]; first compound 0.08 µM): 0.224
relative viability ([3]; first compound 0.253 µM): 0.205
relative viability ([3]; first compound 0.8 µM): 0.206
relative viability ([3]; first compound 2.53 µM): 0.187
relative viability ([3]; first compound 8 µM): 0.16
relative viability ([4]; first compound 0.08 µM): 0.241
relative viability ([4]; first compound 0.253 µM): 0.318
relative viability ([4]; first compound 0.8 µM): 0.267
relative viability ([4]; first compound 2.53 µM): 0.27
relative viability ([4]; first compound 8 µM): 0.284
